According to US9765037B2, “Compositions and methods for treating toxoplasmosis, cryptosporidiosis, and other apicomplexan protozoan related diseases” (University of Washington Through its Center for …, priority 2010, dated 2017):
Values after ≈ are worked out from the molar mass of the structure shown. Where two headings read alike, the source gives them in different places.

Legend:
[1] = biological target: SrcKD (Homo sapiens (Human), UniProt P12931); test: Tyrosine kinase IC50, SrcKD; assay type: biochemical
[2] = biological target: AblKD (Homo sapiens (Human), UniProt P00519); test: Tyrosine kinase IC50, AblKD; assay type: biochemical; conditions: Table 9
[3] = biological target: CpCDPK1 (Cryptosporidium parvum (strain Iowa II), UniProt A3FQ16); test: biochemical; assay type: biochemical
[4] = tested on: human promyelocytic leukemia (HL-60); test: Growth inhibition of human cell line HL-60; conditions: for GI50: read-out: GI50 (μM) HL60, human cell line HL60
[5] = tested on: glioma derived (SF539); test: Growth inhibition of human cell line SF539; conditions: for GI50: read-out: GI50 (μM) SF539, human cell line SF539
[6] = tested on: human lymphocyte (CRL8155); test: Growth inhibition of human cell line CRL8155; conditions: for GI50: read-out: GI50 (μM) CRL8155, human cell line CRL8155
[7] = tested on: colorectal carcinoma (HC 2998); test: Growth inhibition of human cell line HC 2998; conditions: for GI50: read-out: GI50 (μM) HCC2998, human cell line HCC2998
[8] = biological target: PfCDPK1 (Plasmodium falciparum (isolate 3D7), UniProt P62344); test: biochemical
[9] = biological target: PfCDPK4 (Plasmodium falciparum (isolate 3D7), UniProt Q8IBS5); test: biochemical
[10] = tested on: human fibroblast; test: Human fibroblast replication / cytotoxicity (Alamar blue); assay type: cell-based
[11] = biological target: HckKD (Homo sapiens (Human), UniProt P08631); test: Tyrosine kinase IC50, HckKD; assay type: biochemical; conditions: Table 9
[12] = biological target: SRC (Homo sapiens (Human), UniProt P12931)
[13] = Blood levels after oral gavage dosing of mice (LC-MS)
[14] = Solubility in buffers of various pH; assay type: physicochemical; conditions: buffer
[15] = in vivo; conditions: mouse, ip
[16] = tested on: P. berghei expressing GFP; test: P. berghei transmission from treated mice to A. stephensi; conditions: mice treated i.p., Compound 29 at 10 mg/kg; mosquitoes fed 30 minutes after dosing
[17] = biological target: Src3D (Homo sapiens (Human), UniProt P12931); test: biochemical
[18] = tested on: C. parvum; test: Immunosuppressed (SCID-beige) mouse C. parvum model; assay type: in vivo, Cryptosporidium parvum; conditions: SCID-beige mice; oral gavage once a day, days 3-7 and 10-14; 29 and 150 at 50 mg/kg/day, Paromomycin 2 g/kg/day
Experimental: Shown are mean of the parasite numbers detected in 25 mg of stool from each mouse, by qRT-PCR.

[19] = Table 8, read-out: IC50 (μM) CpCDPK1
[20] = pH 6.5, aqueous buffer, read-out: Experimental Solubility pH 6.5

Compound	IC50 ([1]; Table 9) [µM]	IC50 [2] [µM]	IC50 [3, 19] [µM]	Cell Toxicity HL60, % at 10 μM [4]	Cell Toxicity SF539, % at 10 μM [5] [% at 10 μM]	Cell Toxicity CRL8155, % at 10 μM [6]	Cell Toxicity HCC2998, % at 10 μM [7] [% at 10 μM]	EC50 [8] [nM]	EC50 [9] [nM]	Observed HFF Toxicity (T at concentration) [10]	further results
Nc1ncnc2c1cnn2CC1CCNCC1 [Compound 99]	> 10	> 10	–	–	–	–	–	–	–	–	–
Nc1ncnc2c1c(-c1cnc3ccccc3c1)nn2CC1CCNCC1 [Compound 30, 1-(piperidin-4-ylmethyl)-3-(quinolin-3-yl)-1H-pyrazolo[3,4-d]pyrimidin-4-amine]	> 20	> 20	0.0837	<30% at 10 μM	<30	<30% at 10 μM	<30	–	–	–	Cell Toxicity HL60, % at 30 μM [4]: <30% at 30 μM; Cell Toxicity CRL8155, % at 30 μM [6]: <30% at 30 μM
CCCOc1ccc2cc(-c3nn(CC4CCNCC4)c4ncnc(N)c34)ccc2c1 [Compound 33, 1-(piperidin-4-ylmethyl)-3-(6-propoxynaphthalen-2-yl)-1H-pyrazolo[3,4-d]pyrimidin-4-amine]	–	–	–	<30% at 10 μM	<30	<30% at 10 μM	30	196	21.1	T at 100 μM	IC50 [11]: > 10 µM
CC(C)(C)n1nc(-c2cccc3ccccc23)c2c(N)ncnc21 [Compound 1, 1-tert-butyl-3-(naphthalen-1-yl)-1H-pyrazolo[3,4-d]pyrimidin-4-amine]	–	–	–	–	–	–	–	–	–	–	IC50 ([3]; read-out: IC50 (μM) CpCDPK1): > 3 µM; GI50 [4]: > 10 µM; GI50 [5]: > 10 µM; GI50 [6]: > 10 µM; IC50 [1]: 1.3 µM; inhibition of SRC (in words) [12]: do not potently inhibit; IC50 ([12]; read-out: IC50 (μM) Src): 1.3 µM; GI50 [7]: > 10 µM
CC(C)(C)n1ncc2c(N)ncnc21 [Compound 123]	> 10	> 10	–	–	–	–	–	–	–	–	–
C=CCOc1ccc2cc(-c3nn(C(C)C)c4ncnc(N)c34)ccc2c1 [Compound 41, 3-(6-(allyloxy)naphthalen-2-yl)-1-isopropyl-1H-pyrazolo[3,4-d]pyrimidin-4-amine]	–	–	–	<30% at 10 μM	–	<30% at 10 μM	–	36.3	19.2	T at 100 μM	AUC ([13]; mouse, in vivo, po): 52.9 µM·h; Cmax ([13]; mouse, in vivo, po): 13.6 µM; Tmax ([13]; mouse, in vivo, po): 1.67 h; solubility [14, 20]: 4.4 µM (≈ 1.58 µg/mL)
CC(C)(C)n1nc(-c2ccccc2)c2c(N)ncnc21 [Compound 140]	–	0.636	–	–	–	–	–	337	399	–	solubility [14, 20]: 22 µM (≈ 5.88 µg/mL)
COc1ccc2cc(-c3nn(CC4CCNCC4)c4ncnc(N)c34)ccc2c1 [Compound 28, 3-(6-methoxynaphthalen-2-yl)-1-(piperidin-4-ylmethyl)-1H-pyrazolo[3,4-d]pyrimidin-4-amine]	> 20	> 20	0.0023	<30% at 10 μM	<30	<30% at 10 μM	<30	739	18.8	–	Cell Toxicity HL60, % at 30 μM [4]: <30% at 30 μM; Cell Toxicity CRL8155, % at 30 μM [6]: <30% at 30 μM; AUC [15]: 151 µM·h; Cmax [15]: 84.1 µM; Tmax [15]: 0.667 h; IC50 [11]: > 10 µM; AUC ([13]; mouse, in vivo, po): 20.5 µM·h; Cmax ([13]; mouse, in vivo, po): 4.41 µM; Tmax ([13]; mouse, in vivo, po): 2.67 h; solubility ([14]; aqueous buffer, pH 2.0, read-out: Experimental Solubility pH 2.0): 49 µM (≈ 19 µg/mL); solubility [14, 20]: 58 µM (≈ 22.5 µg/mL); solubility ([14]; pH 7.4, aqueous buffer, read-out: Experimental Solubility pH 7.4): 56 µM (≈ 21.8 µg/mL)
CC(C)(C)n1nc(-c2ccc3ccccc3c2)c2c(N)ncnc21 [NA-PP2, reference compound]	–	–	–	–	–	–	–	–	–	–	formation of oocysts in A. stephensi fed on treated mice [16]: hundreds of oocysts per mosquito
CC(C)n1nc(-c2cc3c(Cl)cccc3[nH]2)c2c(N)ncnc21 [Compound 26, 3-(4-chloro-1H-indol-2-yl)-1-isopropyl-1H-pyrazolo[3,4-d]pyrimidin-4-amine]	–	–	0.0162	45% toxicity at	–	38% toxicity at	–	–	544	–	IC50 [17]: 1240 nM
C=CCOc1ccc2cc(-c3nn(CC4CCNCC4)c4ncnc(N)c34)ccc2c1 [Compound 36, 3-(6-(allyloxy)naphthalen-2-yl)-1-(piperidin-4-ylmethyl)-1H-pyrazolo[3,4-d]pyrimidin-4-amine]	–	–	–	<30% at 10 μM	<30	<30% at 10 μM	<30	146	15.7	T at 100 μM	IC50 [11]: > 10 µM; AUC ([13]; mouse, in vivo, po): 1.83 µM·h; Cmax ([13]; mouse, in vivo, po): 0.59 µM; Tmax ([13]; mouse, in vivo, po): 3.67 h
CC(C)(C)n1nc(Cc2cccc3ccccc23)c2c(N)ncnc21 [Compound 5d, 1-tert-butyl-3-(naphthalen-1-ylmethyl)-1H-pyrazolo[3,4-d]pyrimidin-4-amine]	–	7.7	0.144	<30% at 10 μM	<30	<30% at 10 μM	<30	–	–	–	IC50 ([3]; read-out: CpCDPK1 IC50): 0.14 µM; GI50 [4]: > 10 µM; GI50 [5]: > 10 µM; GI50 [6]: > 10 µM; GI50 [7]: > 10 µM
CC(C)n1nc(-c2cc3ccccc3[nH]2)c2c(N)ncnc21 [Compound 24, 3-(1H-indol-2-yl)-1-isopropyl-1H-pyrazolo[3,4-d]pyrimidin-4-amine]	–	–	0.0704	–	–	–	–	471	337	–	IC50 [17]: 1450 nM
NC[C@@H]1O[C@H](O[C@H]2[C@@H](O)[C@H](O[C@@H]3[C@@H](O)[C@H](N)C[C@H](N)[C@H]3O[C@H]3O[C@H](CO)[C@@H](O)[C@H](O)[C@H]3N)O[C@@H]2CO)[C@H](N)[C@@H](O)[C@@H]1O [Paromomycin, reference compound]	–	–	–	–	–	–	–	–	–	–	parasite burden rebound after treatment [18]: quickly rebounded; parasites in stool (qRT-PCR) at the end of treatment [18]: not detected
CCOc1ccc2cc(-c3nn(CC4CCN(C)CC4)c4ncnc(N)c34)ccc2c1 [Compound 150, 3-(6-ethoxynaphthalen-2-yl)-1-((1-methylpiperidin-4-yl)methyl)-1H-pyrazolo[3,4-d]pyrimidin-4-amine]	> 10	> 3	–	<30% at 10 μM	–	<30% at 10 μM	–	–	33.7	T at 25 μM	parasites in stool (qRT-PCR) at the end of treatment [18]: not detected; Cell Toxicity HL60, % at 30 μM [4]: <30% at 30 μM; Cell Toxicity CRL8155, % at 30 μM [6]: <30% at 30 μM; IC50 [9]: 10 nM; Blood level, First Peak ([13]; mice, 40 mg/kg oral gavage 3x daily for 4 days, 1 hr after first dose, mean±SD, N=3): 2.1 ± 1.2 µM; Blood level, Fourth D4 Peak ([13]; mice, 40 mg/kg oral gavage 3x daily for 4 days, 1 hr after third dose of d4, mean±SD, N=3): 8.9 ± 3.4 µM; Blood level, First Trough ([13]; mice, 40 mg/kg oral gavage 3x daily for 4 days, 17 hours after dosing, beginning of d2, mean±SD, N=3): 2.0 ± 1.6 µM; Cmax ([13]; mouse, in vivo, po, 10 mg/kg): 0.8 µM; Tmax ([13]; mouse, in vivo, po, 10 mg/kg): 2.15 h; concentration at 17 h ([13]; mouse, in vivo, po, 40 mg/kg): 6.3 ± 1.8 µM
CCCCOc1ccc2cc(-c3nn(CC4CCNCC4)c4ncnc(N)c34)ccc2c1 [Compound 35, 3-(6-butoxynaphthalen-2-yl)-1-(piperidin-4-ylmethyl)-1H-pyrazolo[3,4-d]pyrimidin-4-amine]	–	–	0.0044	<30% at 10 μM	<30	<30% at 10 μM	<30	151	31.2	25 to 100 µM	IC50 [11]: > 10 µM; solubility [14, 20]: 45 µM (≈ 19.4 µg/mL)
